These results are taken from US20030082525A1, “Five-Helix protein” (priority 1999, published 2003).

The test system of assay [1] is HIV-1 envelope-mediated membrane fusion (CHO cells expressing gp160 and Tat with HELA cells expressing CD4 and coreceptors). The assay is described as follows: Cell-cell fusion assay (syncytia formation). It counts as cell-based. Conditions: 200 nM 5-Helix or 6-Helix mixed with C34 at 100, 166, 190 and 210 nM. As to the method:
Assays were carried out to assess the ability of 5-Helix to interact with the C-region of gp41 and inhibit function of the fusion protein. This inhibition of membrane fusion by 5-Helix and 6-Helix was assessed using a cell-based assay. Proteins 5-Helix and 6-Helix are serially diluted in modified DMEM media with 5% FCS and aliquoted into slide chambers. HELA cells (4×10^4) expressing CD4 and coreceptors and containing a β-galactosidase gene under the control of the Tat promoter are added. CHO cells (2×10^4) expressing gp160 (precursor protein to gp120/gp41) and Tat are also added. The 400 μl miniculture is incubated at 37° C. for 8 to 24 hours; fused cells (syncytia) will transcribe and translate β-galactosidase. The cells are fixed in gluteraldehyde and exposed to X-gal/Fe solution for one hour. Syncytia that contain β-galactosidase turn blue-green. […]
All data in FIGS. 3A-3C were generated using His-tagged 5-Helix (see Example 1). […] Following two days of incubation at 37° C., the cells were harvested in […] lysis buffer (Luciferase Assay System, Promega), of which […] was analyzed per manufacturer's protocol. The IC50 values were calculated by fitting the 5-Helix titration data to a Langmuir function [normalized luciferase activity=1/(1+[5−Helix]/IC50)].

For assay [2], the target named is His-tagged C-peptide C37-H6 (C-peptide region of gp41) (Human immunodeficiency virus type 1 group M subtype B, UniProt P04578). The note with it: 150 μM C34 added to 16 μM 5-Helix and 30 μM C37-H6.
Method: The solution was added to 10 ml of Ni-NTA agarose and incubated at room temperature for 10 minutes. After the unbound supernatant was removed, the beads were washed twice with 1 ml TBS and then eluted with 500 mM imidazole. The Ni-bound and unbound samples were run on a 16.5% Tris-Tricine polyacrylamide gel (Biorad) and stained with Gel-code Blue (Pierce).
For assay [3], the system named is HIV-1 envelope-mediated membrane fusion (CHO cells expressing gp160 and Tat with HELA cells expressing CD4 and coreceptors). Conditions: number of syncytia; Chan et al. 1998; read-out: IC50 of C34 in cell-cell fusion assay; cited from earlier work.
Assay [4] has as its target HIV gp41 (from gp160, strain not stated in the assay text) (HIV-1). The assay is described as follows: cell-based or functional assay.

For “C34: Peptide corresponding to the C-peptide region of HIV gp41 (W628 to L661); chemically synthesized, no His-tag”, in assay [1], the “Syncytia formation in mixing (competition) experiments (in words)” value was “blocks all syncytia formation”. Further, in assay [2], the “Competition of untagged C-peptide for 5-Helix/C37-H6 precipitation (in words)” value is reported as “substantially reduces the amount of precipitated 5-Helix”. Further, in assay [3], the IC50 (usually the concentration needed to halve the response being measured) was 0.55 ± 0.03 nM.
In turn, GGHTTWMEWDREINNYTSLIHSLIEESQNQQEKNEQELLGGHHHHHH (modifications not checked) [His-tagged C-peptide C37-H6] showed an IC50, cell-cell fusion assay in assay [4] of 1 nM.
